Source: ChEMBL document CHEMBL1137525, “Additional level of information about complex interaction between non-nucleoside inhibitor and HIV-1 reverse transcriptase using biosensor-based thermodynamic analysis” (Bioorg Med Chem, 2007)

Legend:
[1] = biological target: T1, Human immunodeficiency virus type 1 reverse transcriptase (Human immunodeficiency virus 1, UniProt Q72547, K103N); assay: Binding affinity to HIV1 reverse transcriptase K103N mutant at 25 degC
[2] = biological target: T2, Human immunodeficiency virus type 1 reverse transcriptase (Human immunodeficiency virus 1, UniProt Q72547, Y181C); assay: Binding affinity to HIV1 reverse transcriptase Y181C mutant at 25 degC
[3] = biological target: T1, Human immunodeficiency virus type 1 reverse transcriptase; assay: Binding affinity to HIV1 reverse transcriptase K103N mutant at 15 degC
[4] = biological target: T2, Human immunodeficiency virus type 1 reverse transcriptase; assay: Binding affinity to HIV1 reverse transcriptase Y181C mutant at 5 degC
[5] = biological target: T2, Human immunodeficiency virus type 1 reverse transcriptase; assay: Binding affinity to HIV1 reverse transcriptase Y181C mutant at 15 degC
[6] = biological target: T2, Human immunodeficiency virus type 1 reverse transcriptase; assay: Binding affinity to HIV1 reverse transcriptase Y181C mutant at 35 degC
[7] = biological target: T1, Human immunodeficiency virus type 1 reverse transcriptase; assay: Binding affinity to HIV1 reverse transcriptase K103N mutant at 5 degC
[8] = biological target: T1, Human immunodeficiency virus type 1 reverse transcriptase; assay: Binding affinity to HIV1 reverse transcriptase K103N mutant at 35 degC

For CCC(=O)c1ccc(F)c([C@@H]2C[C@@H]2NC(=O)Nc2ccc(C#N)cn2)c1O, which Kd [1] is on record?
The Kd was 4.91 nM.

What about the Kd [2] of the same compound?
Its Kd is 1.5 nM.

What about the Kd [3] of the same compound?
The Kd was 0.997 nM.

And the Kd [4]?
The Kd was 0.627 nM.

And the Kd [5]?
Its Kd is 0.79 nM.

What about the Kd [6] of the same compound?
The Kd was 2.89 nM.

And the Kd [7]?
The Kd was 0.596 nM.

What about the Kd [8] of the same compound?
Its Kd is 3.49 nM.
